Patent EP4230621A1, “SUBSTITUTED N-BENZOIC ACID URACILS, THEIR SALTS AND USE OF SAID COMPOUNDS AS HERBICIDAL AGENTS” (Bayer AG, priority 2022, dated 2023)

Assays:
Assay type in all cases: in vivo
Abutilon theophrasti = test: Post-emergence herbicidal action against ABUTH (greenhouse pot test); conditions: visual rating after ca. 3 weeks vs untreated controls (100% = plants dead, 0% = like controls)
Excerpt: (§1) Die folgenden Abkürzungen werden für die in den folgenden Tabellen aufgeführten Kultur- und Schadpflanzen verwendet: ABUTH: Abutilon theophrasti ALOMY: Alopecurus myosuroides AMARE: Amaranthus retroflexus BRSNS: Brassica napus DIGSA: Digitaria sanguinalis ECHCG: Echinochloa crus-galli GLXMA: Glycine max KCHSC: Kochia scoparia LOLRI: Lolium rigidum MATIN: Matricaria inodora ORYZA: Oryza sativa PHPBU: Pharbitis purpurea POLCO: Polygonum convolvulus SETVI: Setaria viridis VERPE: Veronica persica VIOTR: Viola tricolor TRZAS: Triticum aestivum ZEAMX: Zea mays
(§2) Samen von mono- bzw. dikotylen Unkrautpflanzen wurden in Kunststoff- oder Holzfasertöpfen in sandigem Lehmboden ausgelegt, mit Erde abgedeckt und im Gewächshaus unter kontrollierten Wachstumsbedingungen angezogen. 2 bis 3 Wochen nach der Aussaat wurden die Versuchspflanzen im Einblattstadium behandelt. Die in Form von benetzbaren Pulvern (WP) oder als Emulsionskonzentrate (EC) formulierten erfindungsgemäßen Verbindungen wurden dann als wässrige Suspension bzw. Emulsion unter Zusatz von 0,5% Additiv mit einer Wasseraufwandmenge von umgerechnet 600 1/ha auf die grünen Pflanzenteile gesprüht. Nach ca. 3 Wochen Standzeit der Versuchspflanzen im Gewächshaus, unter optimalen Wachstumsbedingungen, wurde die Wirkung der Präparate visuell im Vergleich zu unbehandelten Kontrollen bonitiert. Beispielsweise bedeutet 100% Wirkung = Pflanzen sind abgestorben, 0% Wirkung = wie Kontrollpflanzen.
(§3) In den nachstehenden Tabellen A1 bis A11 sind die Wirkungen ausgewählter Verbindungen der allgemeinen Formel (I) gemäß der Tabelle 1 auf verschiedene Schadpflanzen und einer Aufwandmenge entsprechend 80 g/ha und niedriger, die gemäß zuvor genannter Versuchsvorschrift erhalten wurden, dargestellt. Tabelle A1a: Nachauflaufwirkung bei 5 g/ha gegen ABUTH in %

Alopecurus myosuroides = test: Post-emergence herbicidal action against ALOMY (greenhouse pot test); conditions: visual rating after ca. 3 weeks vs untreated controls (100% = plants dead, 0% = like controls)
Excerpt: as §1, §2, §3

Amaranthus retroflexus = test: Post-emergence herbicidal action against AMARE (greenhouse pot test); conditions: visual rating after ca. 3 weeks vs untreated controls (100% = plants dead, 0% = like controls)
Excerpt: as §1, §2, §3

Digitaria sanguinalis = test: Post-emergence herbicidal action against DIGSA (greenhouse pot test); conditions: visual rating after ca. 3 weeks vs untreated controls (100% = plants dead, 0% = like controls)
Excerpt: as §1, §2, §3

Lolium rigidum = test: Post-emergence herbicidal action against LOLRI (greenhouse pot test); conditions: visual rating after ca. 3 weeks vs untreated controls (100% = plants dead, 0% = like controls)
Excerpt: as §1, §2, §3

Matricaria inodora = test: Post-emergence herbicidal action against MATIN (greenhouse pot test); conditions: for Nachauflaufwirkung gegen MATIN: visual rating after ca. 3 weeks vs untreated controls (100% = plants dead, 0% = like controls)
Excerpt: as §1, §2, §3

Pharbitis purpurea = test: Post-emergence herbicidal action against PHBPU (greenhouse pot test)
Excerpt: as §1, §2, §3

Polygonum convolvulus = test: Post-emergence herbicidal action against POLCO (greenhouse pot test)
Excerpt: as §1, §2, §3

Setaria viridis = test: Post-emergence herbicidal action against SETVI (greenhouse pot test)
Excerpt: as §1, §2, §3

Veronica persica = test: Post-emergence herbicidal action against VERPE (greenhouse pot test)
Excerpt: as §1, §2, §3

Viola tricolor = test: Post-emergence herbicidal action against VIOTR (greenhouse pot test)
Excerpt: as §1, §2, §3

Zea mays = test: Post-emergence action on crop plants, ZEAMX (greenhouse pot test); conditions: 5 g/ha, crop plant
Excerpt: as §1
as §2, with “Kulturpflanzen” for “Unkrautpflanzen”
as §3, with “B1” for “A1”, “B3” for “A11”, “Kulturpflanzen” for “Schadpflanzen”, “20” for “80”, “B1a:” for “A1a:”, “ZEAMX” for “ABUTH”

Triticum aestivum = test: Post-emergence action on crop plants, TRZAS (greenhouse pot test); conditions: crop plant
Excerpt: as §1
as §2, with “Kulturpflanzen” for “Unkrautpflanzen”
as §3, with “B1” for “A1”, “B3” for “A11”, “Kulturpflanzen” for “Schadpflanzen”, “20” for “80”, “B1a:” for “A1a:”, “ZEAMX” for “ABUTH”

Oryza sativa = test: Post-emergence action on crop plants, ORYZA (greenhouse pot test); conditions: 5 g/ha
Excerpt: as §1
as §2, with “Kulturpflanzen” for “Unkrautpflanzen”
as §3, with “B1” for “A1”, “B3” for “A11”, “Kulturpflanzen” for “Schadpflanzen”, “20” for “80”, “B1a:” for “A1a:”, “ZEAMX” for “ABUTH”

`Cn1c(C(F)(F)F)cc(=O)n(-c2cc(C(=O)OC(C)(C)C(=O)OCc3ccccn3)c(Cl)cc2F)c1=O` [I.1-286] was tested, and the “Nachauflaufwirkung gegen ABUTH” value (Abutilon theophrasti; 5 g/ha) was 100%, the “Nachauflaufwirkung gegen ABUTH” value (Abutilon theophrasti; 20 g/ha) was 100% and the “Nachauflaufwirkung gegen ABUTH” value (Abutilon theophrasti; 80 g/ha) was 100%. For the same compound, the “Nachauflaufwirkung gegen ALOMY” value (Alopecurus myosuroides; 20 g/ha) was 100%, the “Nachauflaufwirkung gegen ALOMY” value (Alopecurus myosuroides; 80 g/ha) was 100% and the “Nachauflaufwirkung gegen AMARE” value (Amaranthus retroflexus; 5 g/ha) was 100%. The “Nachauflaufwirkung gegen AMARE” value (Amaranthus retroflexus; 20 g/ha) was 100%, the “Nachauflaufwirkung gegen AMARE” value (Amaranthus retroflexus; 80 g/ha) was 100% and the “Nachauflaufwirkung gegen DIGSA” value (Digitaria sanguinalis; 5 g/ha) was 100%. For the same compound, the “Nachauflaufwirkung gegen DIGSA” value (Digitaria sanguinalis; 20 g/ha) was 100%, the “Nachauflaufwirkung gegen DIGSA” value (Digitaria sanguinalis; 80 g/ha) was 100% and the “Nachauflaufwirkung gegen LOLRI” value (Lolium rigidum; 20 g/ha) was 90%. The “Nachauflaufwirkung gegen LOLRI” value (Lolium rigidum; 80 g/ha) was 100%, the “Nachauflaufwirkung gegen MATIN” value (Matricaria inodora; 5 g/ha) was 100% and the “Nachauflaufwirkung gegen MATIN” value (Matricaria inodora; 20 g/ha) was 100%. The “Nachauflaufwirkung gegen MATIN in %” value (Matricaria inodora; 80 g/ha) was 100%, the “Nachauflaufwirkung gegen PHBPU in %” value (Pharbitis purpurea; 5 g/ha) was 100% and the “Nachauflaufwirkung gegen PHBPU in %” value (Pharbitis purpurea; 20 g/ha) was 100%. The “Nachauflaufwirkung gegen PHBPU in %” value (Pharbitis purpurea; 80 g/ha) was 100%, the “Nachauflaufwirkung gegen POLCO in %” value (Polygonum convolvulus; 5 g/ha) was 100% and the “Nachauflaufwirkung gegen POLCO in %” value (Polygonum convolvulus; 20 g/ha) was 100%. The “Nachauflaufwirkung gegen POLCO in %” value (Polygonum convolvulus; 80 g/ha) was 100%, the “Nachauflaufwirkung gegen SETVI in %” value (Setaria viridis; 5 g/ha) was 100% and the “Nachauflaufwirkung gegen SETVI in %” value (Setaria viridis; 20 g/ha) was 100%. For the same compound, the “Nachauflaufwirkung gegen SETVI in %” value (Setaria viridis; 80 g/ha) was 100%, the “Nachauflaufwirkung gegen VERPE in %” value (Veronica persica; 5 g/ha) was 100% and the “Nachauflaufwirkung gegen VERPE in %” value (Veronica persica; 20 g/ha) was 100%. The “Nachauflaufwirkung gegen VERPE in %” value (Veronica persica; 80 g/ha) was 100%, the “Nachauflaufwirkung gegen VIOTR in %” value (Viola tricolor; 5 g/ha) was 100% and the “Nachauflaufwirkung gegen VIOTR in %” value (Viola tricolor; 20 g/ha) was 100%. The “Nachauflaufwirkung gegen VIOTR in %” value (Viola tricolor; 80 g/ha) was 100%, the “Nachauflaufwirkung gegen ZEAMX in %” value (Zea mays) was 20% and the “Nachauflaufwirkung gegen TRZAS in %” value (Triticum aestivum; 5 g/ha) was 10%. For the same compound, the “Nachauflaufwirkung gegen TRZAS in %” value (Triticum aestivum; 20 g/ha) was 20% and the “Nachauflaufwirkung gegen ORYZA in %” value (Oryza sativa) was 0%.
